Results: ChEMBL document CHEMBL1129342, “Structure-based design of novel HIV protease inhibitors: sulfonamide-containing 4-hydroxycoumarins and 4-hydroxy-2-pyrones as potent non-peptidic inhibitors” (J Med Chem, 1996)

How the values were obtained:
[1] = target: T1, Human immunodeficiency virus type 1 protease (Human immunodeficiency virus 1, UniProt Q72874); experiment: Binding affinity against HIV-1 protease.
[2] = target: T1, Human immunodeficiency virus type 1 protease; experiment: Binding affinity towards HIV protease
[3] = target: Human immunodeficiency virus type 1 protease (Human immunodeficiency virus 1) (UniProt Q72874)
Description: Inhibitory concentration for antiviral activity against MT-4/HIV-1IIIB cell culture

Row | SMILES | Ki [1] [nM] | Ki [2] [nM] | IC90 [3] [nM]
1 | CCC(Cc1ccccc1)c1cc(O)c(C(c2cccc(NS(=O)(=O)c3cn(C)cn3)c2)C2CC2)c(=O)o1 (mixture of isomers) [listing 1 of 2 here] | 1.3 |  | 
2 | CCC(CCOCCOC)c1cc(O)c(C(c2cccc(NS(=O)(=O)c3cn(C)cn3)c2)C2CC2)c(=O)o1 (stereo not given) | 0.88 |  | 
3 | COc1c(C(O)c2ccccc2)c(=O)oc2ccccc12 (stereo not given) |  | 1 | 
4 | O=c1cc(C(CC2CC2)CC2CC2)oc(O)c1C(c1cccc(NS(=O)(=O)c2ccc(F)cc2)c1)C1CC1 (stereo not given) | 16 |  | 8000
5 | CCC(Cc1ccccc1)c1cc(O)c(C(c2cccc(NS(=O)(=O)c3cn(C)cn3)c2)C2CC2)c(=O)o1 (single isomer, unassigned; diastereomer 2) [listing 1 of 2 here] |  |  | 5700
6 | N#Cc1ccc(S(=O)(=O)Nc2cccc(C(c3c(O)oc(C(CC4CC4)CC4CC4)cc3=O)C3CC3)c2)cc1 (stereo not given) | 5.4 |  | 8900
7 | CCC(Cc1ccccc1)c1cc(O)c(C(c2cccc(NS(=O)(=O)c3ccc(OC)cc3)c2)C2CC2)c(=O)o1 (stereo not given) | 22 |  | 7600
8 | CCC(Cc1ccccc1)c1cc(O)c(C(c2cccc(NS(=O)(=O)c3cn(C)cn3)c2)C2CC2)c(=O)o1 (mixture of isomers) [listing 2 of 2 here] |  |  | 4100
9 | COCCOCCCc1cc(O)c(C(c2cccc(NS(=O)(=O)c3cn(C)cn3)c2)C2CC2)c(=O)o1 (stereo not given) | 1.6 |  | 
10 | CCC(Cc1ccccc1)c1cc(O)c(C(c2cccc(NS(=O)(=O)c3cccnc3)c2)C2CC2)c(=O)o1 (stereo not given) | 12 |  | 28700
11 | CCC(Cc1ccccc1)c1cc(O)c(C(c2cccc(NS(=O)(=O)c3cn(C)cn3)c2)C2CC2)c(=O)o1 (single isomer, unassigned; diastereomer 3) [listing 1 of 2 here] |  |  | 6800
12 | COc1ccc2c(O)c(C(c3cccc(NS(=O)(=O)c4cn(C)cn4)c3)C3CC3)c(=O)oc2c1 (stereo not given) | 0.7 |  | 
13 | Cn1cnc(S(=O)(=O)Nc2cccc(C(c3c(O)cc(CCc4ccccc4)oc3=O)C3CC3)c2)c1 (stereo not given) | 0.97 |  | 
14 | COc1ccc2c(O)c(C(c3cccc(NS(=O)(=O)c4cccc5cccnc45)c3)C3CC3)c(=O)oc2c1 (stereo not given) | 4.9 |  | 
15 | CCC(Cc1ccccc1)c1cc(O)c(C(c2cccc(NS(=O)(=O)c3ccccc3)c2)C2CC2)c(=O)o1 (stereo not given) | 17 |  | 7600
16 | COc1ccc2c(O)c(C(c3cccc(NS(=O)(=O)c4ccc(C#N)cc4)c3)C3CC3)c(=O)oc2c1 (stereo not given) | 5.8 |  | 
17 | CCC(Cc1ccccc1)c1cc(O)c(C(c2cccc(NS(=O)(=O)c3cn(C)cn3)c2)C2CC2)c(=O)o1 (single isomer, unassigned; diastereomer 4) [listing 1 of 2 here] |  |  | 6000
18 | Cn1cnc(S(=O)(=O)Nc2cccc(C(c3c(O)cc(C(CC4CC4)CC4CC4)oc3=O)C3CC3)c2)c1 (racemic) |  |  | 4600
19 | CCC(Cc1ccccc1)c1cc(O)c(C(c2cccc(NS(=O)(=O)c3cn(C)cn3)c2)C2CC2)c(=O)o1 (single isomer, unassigned; diastereomer 3) [listing 2 of 2 here] | 1.9 |  | 
20 | CCC(Cc1ccccc1)c1cc(O)c(C(c2cccc(NS(=O)(=O)c3ccc(C#N)cc3)c2)C2CC2)c(=O)o1 (stereo not given) | 5.7 |  | 9900

Row | SMILES | Ki [1] [nM] | Ki [2] [nM] | IC90 [3] [nM]
21 | O=c1cc(C(CC2CC2)CC2CC2)oc(O)c1C(c1cccc(NS(=O)(=O)c2cccc3cccnc23)c1)C1CC1 (stereo not given) | 5.3 |  | 6500
22 | O=c1cc(C(CC2CC2)CC2CC2)oc(O)c1C(c1cccc(NS(=O)(=O)c2ccccc2)c1)C1CC1 (stereo not given) | 23 |  | 12100
23 | Cn1cnc(S(=O)(=O)Nc2cccc(C(c3c(O)cc(C(CC4CC4)CC4CC4)oc3=O)C3CC3)c2)c1 (single isomer, unassigned; enantiomer 2) |  |  | 6900
24 | CCC(Cc1ccccc1)c1cc(O)c(C(c2cccc(NS(=O)(=O)c3ccc(Cl)cc3)c2)C2CC2)c(=O)o1 (stereo not given) | 15 |  | 6200
25 | Cc1cc(O)c(C(c2cccc(NS(=O)(=O)c3cn(C)cn3)c2)C2CC2)c(=O)o1 (stereo not given) | 14 |  | 
26 | CCC(CC1CCOCC1)c1cc(O)c(C(c2cccc(NS(=O)(=O)c3cn(C)cn3)c2)C2CC2)c(=O)o1 (stereo not given) | 0.48 |  | 
27 | Cn1cnc(S(=O)(=O)Nc2cccc(C(c3c(O)cc(C(CC4CC4)CC4CC4)oc3=O)C3CC3)c2)c1 (single isomer, unassigned; enantiomer 1) |  |  | 10400
28 | CCC(Cc1ccccc1)c1cc(O)c(C(c2cccc(NC(=O)Cc3cccnc3)c2)C2CC2)c(=O)o1 (stereo not given) |  | 44 | 
29 | CCC(Cc1ccccc1)c1cc(O)c(C(c2cccc(NS(=O)(=O)c3cn(C)cn3)c2)C2CC2)c(=O)o1 (single isomer, unassigned; diastereomer 4) [listing 2 of 2 here] | 1.4 |  | 
30 | COc1ccc2c(O)c(C(c3cccc(NS(=O)(=O)c4ccc(F)cc4)c3)C3CC3)c(=O)oc2c1 (stereo not given) | 7.7 |  | 
31 | CCC(c1cccc(NC(=O)CCNC2C=Cc3ccccc32)c1)c1c(O)oc2ccccc2c1=O (stereo not given) |  | 110 | 
32 | CCCS(=O)(=O)Nc1cccc(C(c2c(O)cc(C(CC)Cc3ccccc3)oc2=O)C2CC2)c1 (stereo not given) | 40 |  | 11100
33 | CCC(Cc1ccccc1)c1cc(O)c(C(c2cccc(NS(=O)(=O)c3cn(C)cn3)c2)C2CC2)c(=O)o1 (single isomer, unassigned; diastereomer 1) [listing 1 of 2 here] |  |  | 4500
34 | COCCOCCC(CCOCCOC)c1cc(O)c(C(c2cccc(NS(=O)(=O)c3cn(C)cn3)c2)C2CC2)c(=O)o1 (stereo not given) | 4.2 |  | 
35 | CCC(Cc1ccccc1)c1cc(O)c(C(c2cccc(NS(=O)(=O)c3cn(C)cn3)c2)C2CC2)c(=O)o1 (single isomer, unassigned; diastereomer 2) [listing 2 of 2 here] | 0.73 |  | 
36 | CCC(CC)c1cc(O)c(C(c2cccc(NS(=O)(=O)c3cn(C)cn3)c2)C2CC2)c(=O)o1 (stereo not given) | 0.54 |  | 
37 | CCC(Cc1ccccc1)c1cc(O)c(C(c2cccc(NS(=O)(=O)c3cccc4cccnc34)c2)C2CC2)c(=O)o1 (stereo not given) | 3.5 |  | 6000
38 | CCC(Cc1ccccc1)c1cc(O)c(C(c2cccc(NS(=O)(=O)c3cn(C)cn3)c2)C2CC2)c(=O)o1 (single isomer, unassigned; diastereomer 1) [listing 2 of 2 here] | 0.52 |  | 
39 | CCC(Cc1ccccc1)c1cc(O)c(C(c2cccc(NC(=O)C(Cc3c[nH]cn3)NC(=O)OC(C)(C)C)c2)C2CC2)c(=O)o1 (stereo not given) |  | 4 | 
